Reference: patent US20140206678A1, “INHIBITORS OF MTOR KINASE AS ANTI -VIRAL AGENT” (KADMON CORPORATION, LLC, priority 2011, published 2014)

Key:
HCMV [1] = experiment: HCMV multistep growth in serum-starved human fibroblasts, cell-free virus by TCID50; type: cell-based, human cytomegalovirus
[2] = tested on: HCMV proteins IE1, pUL44, pUL99; experiment: Western blot of HCMV proteins in infected fibroblasts; type: cell-based, human cytomegalovirus; details: 6 to 96 hpi; rapamycin 20 nM, Torin1 250 nM; 3 PFU/cell
Method: (§1) FIG. 2. […] Serum-starved confluent fibroblasts were infected with HCMV at a multiplicity of 3 PFU/cell. […] Control cultures received the vehicle in which Torin1 was dissolved (NT). At 2 hpi cells were harvested, and cell-associated viral DNA was quantified by real-time PCR analysis. Error bars represent the standard errors of the means from two independent experiments performed in duplicate. […] The level of IE1 was determined at 6 hpi by a Western blot assay using an IE1-specific monoclonal antibody. The image is representative of two independent experiments. […] The expression of a GFP marker gene present in the viral genome was monitored at 24 h after infection in the presence or absence of drug.
FIG. 3. […] Cells were harvested at the indicated times, and the accumulation of the indicated proteins was analyzed by Western blotting. […] At the indicated times DNA was isolated, and viral DNA was quantified by qPCR. Equivalent amounts of DNA were analyzed for each sample, and the results are normalized to the level of actin DNA per sample. […] At the indicated times the amount of UL99 RNA was determined by qPCR, and the results are normalized to the amount of actin RNA in each sample. […]
Antibodies to pUL99 have been described previously (Silva, et al. J. Virol. (2003) 77:10594-10605). In addition, accumulation of HCMV DNA was monitored following infection using the methods described above.

HCMV [3] = experiment: GFP marker expression from the HCMV genome (percentage of infected cells); type: cell-based, human cytomegalovirus; details: 24 hpi; 250 nM
Method: as §1

UL99 mRNA = experiment: UL99 late transcript level by qPCR in HCMV-infected fibroblasts; type: cell-based, human cytomegalovirus; details: rapamycin 20 nM, Torin1 250 nM; 3 PFU/cell
[4] = tested on: mTORC1 targets (4EBP1, rpS6); experiment: Phosphorylation of mTORC1 targets in HCMV-infected fibroblasts (Western blot); type: cell-based, human; details: rapamycin 20 nM, Torin1 250 nM
MCMV = MCMV replication in mouse embryo fibroblasts, TCID50; type: cell-based, murine cytomegalovirus; details: Torin1 250 nM
eIF4F complex = experiment: Cap-binding (eIF4F) complex in MCMV-infected MEFs, m7G-Sepharose; type: cell-based, mouse; details: Torin1 250 nM, 48 hpi
Method: FIG. 7. […] At 6 days post infection the amount of MCMV in cell-free supernatants was determined by the TCID50 method. The error bars represent the standard errors of the means from three independent experiments, each performed in duplicate. […] At 48 hpi equal amounts of protein from cell lysates were incubated with m^7G-Sepharose. The presence of eIF4F complex components bound by the cap analog was determined by Western blotting. The results are representative of two independent experiments.

HSV-1 = HSV-1 replication in MEFs, TCID50; type: cell-based, herpes simplex virus type 1; details: 72 hpi
γHV68 = γHV68 replication in MEFs, TCID50; type: cell-based, murine gammaherpesvirus 68; details: 6 days post infection, rapamycin 20 nM, Torin1 250 nM
cells = details: concentrations of up to 500 nM; previous reports; cited from earlier work

For `CCC(=O)N1CCN(c2ccc(-n3c(=O)ccc4cnc5ccc(-c6cnc7ccccc7c6)cc5c43)cc2C(F)(F)F)CC1` [Torin1], the IC50 (HCMV [1]; Human betaherpesvirus 5, Fibroblast, 192 h, read-out: IC50 for blocking production of HCMV progeny) was ~60 nM, the “HCMV replication after removal of drug” value (HCMV [1]; cells had received 100 nM Torin1, 16 days post infection) was “completely recovered” and the “HCMV replication after removal of drug” value (HCMV [1]; cells had received 250 nM drug, 16 days post infection) was “substantially recovered”. The “HCMV replication after removal of drug” value (HCMV [1]; cultures initially received 1 mM drug, 16 days post infection) was “partially recovered”, the “reduction of HCMV yield” value (HCMV [1]; day 10, rapamycin 20 nM, Torin1 250 nM, 0.05 PFU/cell) was “about 160 fold” and the “increase in virus yield after reversal of an 8-day Torin1 treatment” value (HCMV [1]; drug release, 16 days post infection) was > 100 fold. For the same molecule, the “accumulation of immediate-early protein IE1” value [2] was “to a limited extent”, the “accumulation of late protein pUL99” value [2] was “dramatically reduced” and the “percentage of cells expressing GFP marker protein” value (HCMV [3]) was “did not alter”. For the same molecule, the “levels of UL99 mRNA” value (UL99 mRNA) was “decreased”, the “phosphorylation of 4EBP1 during HCMV infection” value [4] was “substantially blocked” and the “induction of rpS6 phosphorylation during HCMV infection” value ([4]; 48 hpi) was “markedly inhibited”. For the same molecule, the MCMV replication (MCMV; 4EBP1-null MEFs, rapamycin 20 nM, 6 days post infection) was “no longer capable of inhibiting”, the MCMV replication (MCMV; Akt1/Akt2-null MEFs) was “Torin-sensitive” and the MCMV replication (MCMV; Rictor-null MEFs, 6 days post infection) was “effectively inhibited”. For the same molecule, the MCMV replication (MCMV; wild-type MEFs, rapamycin 20 nM, 0.05 PFU/cell) was “inhibited”, the “formation of the eIF4F complex” value (eIF4F complex; 4EBP1-null cells) was “no such effect was observed” and the “formation of the eIF4F complex” value (eIF4F complex; control cells) was “inhibited the formation”. The HSV-1 replication (HSV-1; MEFs, rapamycin 20 nM, Torin1 250 nM, 0.05 PFU/cell) was “inhibited”, the “production of HSV-1” value (HSV-1; cells lacking 4EBP1) was “failed to inhibit” and the γHV68 replication (γHV68) was “inhibited”. For the same molecule, the cell killing (cells) was “does not kill cells”.
